“And” between values parts separate entries of the source, which are not always exact repeats. Identical values can stand only once.
Tests used:
Assay type in all cases: in vivo
[1] = test system: Tetranychus urticae (two-spotted spider mite); assay: Tetranychus urticae bean leaf discs in 24-well microtiter plates, mixed population mortality; settings: 8 days
Description: (§1) The action to be expected E for a given active ingredient combination obeys the so-called COLBY formula and can be calculated as follows (COLBY, S.R. “Calculating synergistic and antagonistic responses of herbicide combination”. Weeds, Vol. 15, pages 20-22; 1967):
(§2) ppm=milligrams of active ingredient (=a.i.) per liter of spray mixture X=% action by active ingredient A) using p ppm of active ingredient Y=% action by active ingredient B) using q ppm of active ingredient.
(§3) According to COLBY, the expected (additive) action of active ingredients A)+B) using p+q ppm of active ingredient is
(§4) If the action actually observed (O) is greater than the expected action (E), then the action of the combination is super-additive, i.e. there is a synergistic effect. In mathematical terms the synergism factor SF corresponds to O/E. In the agricultural practice an SF of ≧1.2 indicates significant improvement over the purely complementary addition of activities (expected activity), while an SF of ≦0.9 in the practical application routine signals a loss of activity compared to the expected activity.
Tetranychus Urticae (Two-Spotted Spider Mite)
Bean leaf discs on agar in 24-well microtiter plates are sprayed with test solutions (DMSO). After drying, the leaf discs are infested with mite populations of mixed ages. 8 days later, discs are checked for mixed population mortality.

[2] = test system: Spodoptera littoralis (Egyptian cotton leaf worm); assay: Spodoptera littoralis larvicide L1, feeding/contact, cotton leaf discs; settings: single compound
Description: as §1, §2, §3, §4
Spodoptera Littoralis (Egyptian Cotton Leaf Worm)
(Larvicide L1, Feeding/Contact)
Cotton leaf discs are placed on agar in Petri dishes and sprayed with test solutions in an application chamber. After drying, the leaf discs are infested with 10 L1 larvae. The samples are checked for mortality 5 days after treatment. 3 replicates per treatment were evaluated. (1 PPM=1 mg l^−1)

[3] = test system: Heliothis virescens (tobacco budworm); assay: Heliothis virescens ovo-larvicide, feeding/contact, eggs on filter paper in Petri dishes; settings: for AVERAGE DEAD IN % (LARVAE): single compound, 7 days
Description: as §1, §2, §3, §4
Heliothis Virescens (Tobacco Budworm):
(Ovo-Larvicide, Feeding/Contact)
30-35 fresh eggs (0-24 h old), deposited on filter paper, are placed in Petri dishes on top of a layer of artificial diet and 0.8 ml of diluted test solutions are pipetted onto them. After an incubation period of 7 days, samples are checked for egg and larval mortality. 3 replicates per treatment were evaluated.

[4] = test system: Tetranychus urticae (two spotted spider mite); assay: Tetranychus urticae contact/feeding activity on bean plants, adult mortality
Description: as §1, §2, §3, §4
Tetranychus Urticae (Two Spotted Spider Mite)
(Contact/Feeding Activity)
Bean plants are infested with mite populations of mixed ages. 1 day after infestation, plants are treated in a spray chamber with diluted test solutions. 1 and 8 days later, samples are checked for adult mortality. 2 replicates per treatment were evaluated.

[5] = test system: Heliothis virescens (tobacco budworm); assay: Heliothis virescens eggs in 24-well microtiter plate on artificial diet, larval mortality
In short: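 Eggs 0–24 h old on artificial diet were treated by pipetting test solutions in DMSO. Larval mortality scored after 4 days; combination effects assessed against Colby-expected action, with synergism factor = observed/expected.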

abamectin
AVERAGE DEAD IN % ([1]; 0.0002 ppm alone): 0%
AVERAGE DEAD IN % ([1]; 0.0004 ppm alone): 0%
AVERAGE DEAD IN % ([1]; 0.0008 ppm alone): 0%
AVERAGE DEAD IN % ([1]; 0.0015 ppm alone): 0%
AVERAGE DEAD IN % ([1]; 0.003 ppm alone): 0%
AVERAGE DEAD IN % ([1]; 0.006 ppm alone): 0%
AVERAGE DEAD IN % ([1]; 0.0125 ppm alone): 0%
AVERAGE DEAD IN % ([1]; 0.025 ppm alone): 0%
AVERAGE DEAD IN % ([1]; 0.05 ppm alone): 85%
AVERAGE DEAD IN % ([1]; 0.1 ppm alone): 85%
AVERAGE DEAD IN % ([1]; Abamectin alone, 0.0002 ppm, Table 120): 0%
AVERAGE DEAD IN % ([1]; Abamectin alone, 0.0004 ppm, Table 120): 0%
AVERAGE DEAD IN % ([1]; Abamectin alone, 0.0008 ppm, Table 120): 0%
AVERAGE DEAD IN % ([1]; Abamectin alone, 0.0015 ppm, Table 120): 0%
AVERAGE DEAD IN % ([1]; Abamectin alone, 0.003 ppm, Table 120): 0%
AVERAGE DEAD IN % ([1]; Abamectin alone, 0.006 ppm, Table 120): 0%
AVERAGE DEAD IN % ([1]; Abamectin alone, 0.0125 ppm, Table 120): 0%
AVERAGE DEAD IN % ([1]; Abamectin alone, 0.025 ppm, Table 120): 0%
AVERAGE DEAD IN % ([1]; Abamectin alone, 0.05 ppm, Table 120): 70%
AVERAGE DEAD IN % ([1]; Abamectin alone, 0.1 ppm, Table 120): 80%
AVERAGE DEAD IN % AFTER 5 DAYS ([2]; 0.4 PPM AI): 10% and 7%
AVERAGE DEAD IN % AFTER 5 DAYS ([2]; 0.8 PPM AI): 13% and 10%
AVERAGE DEAD IN % AFTER 5 DAYS ([2]; 1.6 PPM AI): 40% and 20%
activity on eggs ([3]; egg mortality, 7 days incubation): inactive
AVERAGE DEAD IN % (LARVAE) ([3]; 0.025 ppm AI): 3%
AVERAGE DEAD IN % (LARVAE) ([3]; 0.05 ppm AI): 37%
AVERAGE DEAD IN % (LARVAE) ([3]; 0.1 ppm AI): 53%
AVERAGE DEAD IN % AFTER 8 DAYS ([4]; 0.0015 ppm alone): 25%
AVERAGE DEAD IN % AFTER 8 DAYS ([4]; 0.003 ppm alone): 20%
AVERAGE DEAD IN % AFTER 8 DAYS ([4]; 0.006 ppm alone): 25%
AVERAGE DEAD IN % AFTER 1 DAY ([4]; Abamectin alone 0.0015 ppm AI): 0%
AVERAGE DEAD IN % AFTER 1 DAY ([4]; Abamectin alone 0.003 ppm AI): 0%
AVERAGE DEAD IN % AFTER 1 DAY ([4]; Abamectin alone 0.006 ppm AI): 0%
AVERAGE DEAD IN % ([5]; single compound at 0.2 ppm AI): 0%
AVERAGE DEAD IN % ([5]; single compound at 0.4 ppm AI): 45%
AVERAGE DEAD IN % ([5]; single compound at 0.8 ppm AI): 68%
AVERAGE DEAD IN % ([5]; single compound at 1.6 ppm AI): 78%
AVERAGE DEAD IN % ([5]; single compound at 3.2 ppm AI): 100%
AVERAGE DEAD IN % ([5]; single compound at 6.4 ppm AI): 100%

Reference: patent US20130085064A1, “PESTICIDAL MIXTURES CONTAINING ISOXAZOLINE DERIVATIVES AND INSECTICIDE OR NEMATOICIDAL BIOLOGICAL AGENT” (priority 2010, published 2013)
